Measurements: patent publication US12427147B2, “Retinal ganglion cell death inhibitor” (SENJU PHARMACEUTICAL CO., LTD., priority 2018, dated 2025)

Columns and labels:
[1] = test system: rat retinal ganglion cells; test: Menadione-induced retinal ganglion cell death, low-molecular ALK3 inhibitors (Example 2); assay type: cell-based; details: 6 μM menadione; for dose dependence of cell death inhibitory effect: 100 nM to 10 μM K02288, 100 nM to 1 μM LDN-193189; for cell death inhibitory effect compared to the group treated with menadione alone / protection of cells from retinal ganglion cell death induced by menadione: 18 hours
Protocol: Rat retinal ganglion cells were isolated in the same manner as in Example 1. In the experimental system (FIG. 2A) of K02288 treatment, three rats were used; whereas, in the experimental system (FIG. 2B) of LDN-193189 treatment, two rats were used.
Retinal ganglion cells were suspended in RGC culture medium and seeded in the wells of a 96-well plate at a density of 1×10^4 cells/well and cultured at 37° C. under a 5% CO2 atmosphere for 24 hours. Twenty four hours later, the medium was removed. To a medium for a menadione reaction, 6 μM menadione and ALK3 inhibitors, i.e., K02288 (Tocris Bioscience) or LDN-193189 (MedChemExpress) (PLOS ONE 2013 8 (4) e62721) were added in accordance with the constitutions of individual groups. DMSO was added to a non K02288 treatment group or a non LDN-193189 treatment group, (a group treated with menadione alone). The cells were incubated at 37° C. for 18 hours and thereafter stained by use of LIVE/DEAD Viability/Cytotoxicity Kit (Thermo Fisher Scientific Inc.). Three photographs per well were taken by use of IncuCyte S3 live cell analysis system (Essen Bioscience) and analyzed. Data was calculated as the ratio of the number of survival cells relative to a total number of dead cells and survival cells. The RGC culture medium and medium for a menadione reaction used herein are the same as those used in Example 1.
Constitutions of groups (a group treated with K02288: n=8, a group treated with LDN-193189: n=6)
Control group: menadione was absent
A group treated with menadione alone: menadione and DMSO were added
A group treated with K02288 (3 groups: 100 nM, 1 μM, 10 μM): menadione and K02288 were added
A group treated with LDN-193189 (2 groups: 100 nM, 1 μM): menadione and LDN-193189 were added.

[2] = test system: rat retinal ganglion cells; test: Menadione-induced retinal ganglion cell death, antibody/K02288 treatment (Example 1); assay type: cell-based; details: 6 μM menadione, 18 hours, vs Normal IgG treatment group, n=3, FIG. 1C
Protocol: The retina was taken out from each of 7 days-old SD rats (13 rats) (Japan SLC Co., Ltd.) and retinal cells were dispersed by Dissociation Kit-Postnatal Neurons (Miltenyi Biotec). Thereafter, retinal ganglion cells (RGC) were isolated from other retinal cells by use of Retinal Ganglion Cell Isolation Kits (Miltenyi Biotec).
The retinal ganglion cells were suspended in RGC culture medium, seeded in the wells of a 96-well plate at a density of 2×10^4 cells/well and cultured at 37° C. under a 5% CO2 atmosphere for 24 hours. Twenty four hours later, the medium was removed. To a medium for a menadione reaction, 6 μM menadione, Normal rabbit IgG (Santa Cruz Biotechnology, Inc.), an anti-ALK3 antibody (Anti-BMPR1A antibody, Abcam plc.), an anti-ALK4 antibody (anti-Activin A receptor Type IB antibody, Abcam plc.) and an ALK3 inhibitor, i.e., K02288 (Tocris Bioscience) (PLOS ONE 2013 8 (4) e62721) were added in accordance with the constitutions of individual groups (described later) and incubation was performed at 37° C. for 18 hours. […] Three photographs per well were taken by IncuCyte S3 live cell analysis system (Essen Bioscience) and analyzed. Data was calculated as the ratio of the number of survival cells relative to a total number of dead cells and survival cells. […]

[3] = test system: retinal ganglion cells; details: mouse retina, Non Patent Literature 1; cited from earlier work
[4] = 1 μM test compound, FIGS. 2A and 2B

Row | Molecule | dose dependence of cell death inhibitory effect [1] | cell death inhibitory effect compared to the group treated with menadione alone [1, 4] | protection of cells from retinal ganglion cell death induced by menadione [1] | suppression of retinal ganglion cell death (ratio of survival cells to total cells) [2] | cell death inhibitory effect compared to the group treated with menadione alone ([1]; 10 μM test compound, FIG. 2A) | effect on retinal ganglion cell death induced by NMDA [3]
1 | c1ccc2c(-c3cnn4cc(-c5ccc(N6CCNCC6)cc5)cnc34)ccnc2c1 [LDN-193189, 4-[6-(4-piperazin-1-yl-phenyl)-pyrazolo[1,5-α]pyrimidin-3-yl]-quinoline] | cell death inhibitory effect in a dose-dependent manner | significant cell death inhibitory effect | exerted an effect to protect cells |  |  | 
2 | COc1cc(-c2cc(-c3cccc(O)c3)cnc2N)cc(OC)c1OC [K02288, 3-[6-amino-5-(3,4,5-trimethoxyphenyl)-3-pyridinyl]-phenol] | cell death inhibitory effect in a dose-dependent manner | significant cell death inhibitory effect | exerted an effect to protect cells | cell death was significantly suppressed | significant cell death inhibitory effect | 
3 | BMP4: a kind of BMP (bone morphogenetic protein) (protein, UniProt P12644 293-408, looked up) Bone morphogenetic protein 4: SPKHHSQRARKKNKNCRRHSLYVDFSDVGWNDWIVAPPGYQAFYCHGDCPFPLADHLNSTNHAIVQTLVNSVNSSIPKACCVPTELSAISMLYLDEYDKVVLKNYQEMVVEGCGCR |  |  |  |  |  | suppressed
4 | Noggin: a BMP inhibitor (naturally occurring protein) (protein, UniProt Q13253 28-232, looked up) Noggin: QHYLHIRPAPSDNLPLVDLIEHPDPIFDPKEKDLNETLLRSLLGGHYDPGFMATSPPEDRPGGGGGAAGGAEDLAELDQLLRQRPSGAMPSEIKGLEFSEGLAQGKKQRLSKKLRRKLQMWLWSQTFCPVLYAWNDLGSRFWPRYVKVGSCFSKRSCSVPEGMVCKPSKSVHLTVLRWRCQRRGGQRCGWIPIQYPIISECKCSC |  |  |  |  |  | accelerated
